According to patent US20120329842A1 (priority 2010, published 2012):
Read-outs that look alike come from different tables or passages of the source.

What was measured:
[1] = target: VIM-1 (Pseudomonas aeruginosa, UniProt A0A0F7KYQ8)
[2] = target: GIM-1 (Pseudomonas aeruginosa, UniProt Q704V1); settings: data from ref. 2; cited from earlier work
[3] = test system: SPM-1; settings: data from ref. 2; cited from earlier work
[4] = target: T1, IMP-1 (Serratia marcescens, UniProt P52699); settings: data from ref. 2; cited from earlier work
[5] = target: T1, IMP-1; test: biochemical; design: species or system Pseudomonas aeruginosa
[6] = target: human matrix metalloproteinase 8 (MMP-8) (Homo sapiens, UniProt P22894); test: Human MMP-8 inhibition, commercial assay kit (Enzo); settings: at concentrations up to 100 μM
[7] = target: Bla2 (Bacillus anthracis, UniProt Q93T40); test: biochemical; assay type: biochemical
[8] = target: subclass B2 metallo-β-lactamase CphA (Aeromonas hydrophila, UniProt P26918); settings: cited from earlier work
[9] = test system: other MBLs; settings: cited from earlier work
[10] = target: T1, IMP-1; settings: cited from earlier work
[11] = target: T1, IMP-1; settings: ratio of Km values
[12] = test system: O=C(Cc1cccs1)N[C@@H]1C(=O)N2C(C(=O)O)=C(/C=C/c3ccc([N+](=O)[O-])cc3[N+](=O)[O-])CS[C@H]12; test: purified protein, by the assay type; settings: pH 7.5
[13] = data from ref. 2; read-out: Km for VIM-1; cited from earlier work
[14] = read-out: Km for VIM-1; data from ref. 2; cited from earlier work

Sequence of Bla2 (Q93T40 1-256): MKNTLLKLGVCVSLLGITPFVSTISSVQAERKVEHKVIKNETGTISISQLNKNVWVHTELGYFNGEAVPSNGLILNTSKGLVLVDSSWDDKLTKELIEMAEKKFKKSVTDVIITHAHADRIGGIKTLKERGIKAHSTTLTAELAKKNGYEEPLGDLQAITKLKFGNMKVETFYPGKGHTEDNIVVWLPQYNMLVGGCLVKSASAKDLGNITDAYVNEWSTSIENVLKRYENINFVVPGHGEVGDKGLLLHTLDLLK
Sequence of GIM-1 (Q704V1 entry or part of it): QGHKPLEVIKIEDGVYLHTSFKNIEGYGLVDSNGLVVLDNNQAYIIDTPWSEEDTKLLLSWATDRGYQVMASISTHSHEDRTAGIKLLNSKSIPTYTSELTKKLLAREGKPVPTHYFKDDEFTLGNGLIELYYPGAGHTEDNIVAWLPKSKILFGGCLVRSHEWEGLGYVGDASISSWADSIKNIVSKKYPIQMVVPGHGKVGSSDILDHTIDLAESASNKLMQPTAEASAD
T1 sequence (P52699 19-246 limits assumed): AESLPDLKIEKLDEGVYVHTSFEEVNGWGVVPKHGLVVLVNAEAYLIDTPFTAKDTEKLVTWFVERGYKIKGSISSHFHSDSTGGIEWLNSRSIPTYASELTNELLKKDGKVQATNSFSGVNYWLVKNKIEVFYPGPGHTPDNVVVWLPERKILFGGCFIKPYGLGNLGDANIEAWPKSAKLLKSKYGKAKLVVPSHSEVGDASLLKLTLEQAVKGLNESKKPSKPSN
Sequence of subclass B2 metallo-β-lactamase CphA (P26918 28-254): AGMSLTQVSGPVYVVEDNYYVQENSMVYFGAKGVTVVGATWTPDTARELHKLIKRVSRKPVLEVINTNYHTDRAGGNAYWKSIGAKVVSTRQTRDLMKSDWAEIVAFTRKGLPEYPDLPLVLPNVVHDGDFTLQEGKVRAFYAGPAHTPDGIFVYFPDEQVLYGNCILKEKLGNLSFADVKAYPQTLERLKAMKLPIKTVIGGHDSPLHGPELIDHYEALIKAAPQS
Sequence of human matrix metalloproteinase 8 (MMP-8) (P22894 101-467): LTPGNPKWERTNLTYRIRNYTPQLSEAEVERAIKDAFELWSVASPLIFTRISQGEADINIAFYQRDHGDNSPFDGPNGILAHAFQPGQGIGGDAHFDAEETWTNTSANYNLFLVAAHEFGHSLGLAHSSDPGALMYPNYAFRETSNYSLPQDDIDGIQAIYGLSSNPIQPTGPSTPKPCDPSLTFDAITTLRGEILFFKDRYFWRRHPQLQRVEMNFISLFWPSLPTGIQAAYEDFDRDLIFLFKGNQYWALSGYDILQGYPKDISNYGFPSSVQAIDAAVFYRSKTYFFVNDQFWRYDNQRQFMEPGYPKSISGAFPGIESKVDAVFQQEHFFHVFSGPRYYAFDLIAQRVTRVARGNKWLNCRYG

In the case of `C[C@@H](O)[C@H]1C(=O)N2C(C(=O)O)=C(S[C@@H]3CN[C@H](C(=O)N(C)C)C3)[C@H](C)[C@H]12` [Meropenem], the Km [1, 13] is listed as 48 µM, the Km [2] is listed as 2.7 µM and the Km [3] is listed as 281 µM.
In the case of `O=C(Cc1cccs1)N[C@@H]1C(=O)N2C(C(=O)O)=C(/C=C/c3ccc([N+](=O)[O-])cc3[N+](=O)[O-])CS[C@H]12` [Nitrocefin, nitrocefin], the Km [4] is listed as 27 µM, the Km [1, 14] is listed as 17 µM and the Km [2] is listed as 5.8 µM. For the same compound, the Km [3] was 4 µM.
`CC1(C)SC(c2ccc(Br)cc2)=N[C@H]1C(=O)O` [Compound 365, (S)-2-(4-bromophenyl)-4,5-dihydro-5,5-dimethylthiazole-4-carboxylic acid] gave an IC50 ([5]; read-out: IMP-1 IC50) of 150 µM.
In the case of `O=C(O)c1csc(Cc2ccccc2)n1` [Compound 2, 2-benzylthiazole-4-carboxylic acid], the “inhibition of human MMP-8” value [6] is reported as “did not exhibit inhibition”.
With `O=c1ccc(-c2ccccc2)cn1O` [Compound 4, 1-hydroxy-5-phenylpyridin-2-one] the IC50 [5] was 12 µM and the Ki [5] was 3 to 19 µM.
Work on `Nc1cccc(C2=NC(C(=O)O)CS2)c1` (stereo not drawn) [Compound 362, 2-(3-aminophenyl)-4,5-dihydrothiazole-4-carboxylic acid] yielded an IC50 ([5]; read-out: IMP-1 IC50) of 100 µM, an IC50 ([7]; read-out: Bla2 IC50) of 20 µM and a Ki ([7]; read-out: Bla2 KI) of 15 µM.
For `C[C@@H](O)[C@H]1C(=O)N2C(C(=O)O)=C(SCCN=CN)C[C@H]12` [Imipenem, imipenem], the Km [1, 14] is given as 1.5 µM and the Km [2] is given as 27 µM.
In the case of `O=C(O)c1ccccn1` [pyridine-2-carboxylic acid], the Ki ([8]; read-out: Ki against CphA) is given as 5.7 µM, the “activity against other MBLs” value [9] is given as “little or no activity” and the “inhibitory effect on IMP-1” value [10] is given as “only a very weak inhibitory effect”.
In the case of `O=C(O)C1CS[C@H](c2ccccc2O)N1` (stereo partly drawn) [Compound 160, (R)-2-(2-hydroxyphenyl)thiazolidine-4-carboxylic acid], the IC50 ([5]; read-out: IMP-1 IC50) is reported as 29.2 µM and the IC50 ([7]; read-out: Bla2 IC50) is reported as 16 µM.
For `O=C(NCc1ccccc1)c1cccc(O)n1` [Compound 3, N-benzyl-6-hydroxypyridine-2-carboxamide], the IC50 [5] was 13.9 µM and the Ki [5] was 3 to 19 µM.
Compound `CC(=O)Nc1cccc(C2=N[C@@H](C(=O)O)C(C)(C)S2)c1` [Compound 368, (S)-2-(3-acetamidophenyl)-4,5-dihydro-5,5-dimethyolthiazole-4-carboxylic acid] has an IC50 ([5]; read-out: IMP-1 IC50) of 60 µM.
For penicillin G, the “fold less tight binding to IMP-1 than imipenem” value [11] is given as roughly 13 ×, the “fold less tight binding to IMP-1 than nitrocefin” value [11] is given as roughly 20 × and the Km [4] is given as 520 µM. The Km [1, 13] was 841 µM, the Km [2] was 46 µM and the Km [3] was 38 µM.
For `O=C(O)c1cccc(C(=O)O)n1` [pyridine-2,6-dicarboxylic acid], the “inhibition of CphA activity” value [8] is listed as “potently inhibit” and the “inhibitory effect on IMP-1” value [10] is listed as “potently inhibit”.
Compound `C[C@H](CS)C(=O)N1CCC[C@H]1C(=O)O` [Captopril, captopril] has an IC50 [7] of 25 µM.
For `COC(=O)[C@@H]1CSC(CNC(=O)OC(C)(C)C)=N1` [Compound 369, tert-butyl ((R)-4-(methoxycarbonyl)-4,5-dihydrothiazol-2-yl)methylcarbamate], the IC50 ([7]; read-out: Bla2 IC50) was 110 µM.
In the case of `O=C(O)[C@@H]1CSC(c2ccccc2)=N1` [Compound 1, (R)-4,5-dihydro-2-phenylthiazole-4-carboxylic acid], the “inhibition of human MMP-8” value [6] is reported as “did not exhibit inhibition”.
In the case of `CC1(C)S[C@@H]2[C@H](NC(=O)[C@H](N)c3ccccc3)C(=O)N2[C@H]1C(=O)O` [Ampicillin], the Km [4] is listed as 200 µM, the Km [1, 13] is listed as 917 µM and the Km [2] is listed as 20 µM. For the same compound, the Km [3] was 72 µM.
For `CC(=O)OCC1=C(C(=O)O)N2C(=O)[C@@H](NC(=O)Cc3cccs3)[C@H]2SC1` [Cephalothin], the Km [4] is listed as 21 µM, the Km [1, 14] is listed as 53 µM and the Km [2] is listed as 16 µM. The Km [3] was 4 µM.
Work on `CC(C)(C)OC(=O)Nc1cccc(C2=NC(C(=O)O)CS2)c1` (stereo not drawn) [Compound 361, 2-[3-(tert-butoxycarbonylamino)phenyl]-4,5-dihydrothiazole-4-carboxylic acid] yielded an IC50 ([7]; read-out: Bla2 IC50) of 70 µM.
With IMP-1 (Serratia marcescens) the Km [12] was 25 µM.
